Laboratory results as given in article PMC9184688, “α-Glucosidase inhibitive diarylheptanoids from Ottelia acuminata var. acuminata, a traditional vegetable of Bai Nationality in Yunnan” (Natural Products and Bioprospecting, 2022).
Marks after values point to notes of the source that are not given here.

Tests used:
[1] = molecular target: T1, PTP1B (Homo sapiens, UniProt P18031); test: PTP1B inhibitory assay (phosphate-based detection reagent, absorbance at 620 nm); format: biochemical; settings: means ± SD (n = 3)
T1 construct: purchased Sigma Chemical (Merck KGaA, Darmstadt, Germany)
T1 sequence (P18031 1-322 limits assumed): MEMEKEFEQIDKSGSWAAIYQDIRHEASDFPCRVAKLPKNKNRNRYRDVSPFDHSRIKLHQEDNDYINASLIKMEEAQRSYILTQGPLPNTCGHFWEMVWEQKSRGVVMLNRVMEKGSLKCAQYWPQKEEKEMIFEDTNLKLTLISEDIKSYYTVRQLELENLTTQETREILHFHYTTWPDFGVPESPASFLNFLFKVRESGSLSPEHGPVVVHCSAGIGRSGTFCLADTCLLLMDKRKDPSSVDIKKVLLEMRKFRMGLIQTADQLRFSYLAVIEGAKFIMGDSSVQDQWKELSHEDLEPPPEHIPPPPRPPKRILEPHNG
Procedure: IR spectra were measured on a Bruker FT-IR Tensor-27 infrared spectrophotometer with KBr disks. Optical rotations were recorded on a JASCO P-1020 polarimeter. UV spectra were obtained with a Shimadzu UV-2401PC spectrometer. 1D and 2D NMR spectra were performed on a Bruker DRX-600 spectrometer using TMS as an internal standard. The chemical shifts (δ) were expressed in ppm with reference to the solvent signals. HREIMS and HRESIMS analysis were obtained from Waters Xevo TQS and Agilent G6230 TOF mass spectrometers, respectively. […] Semi-preparative HPLC was performed on a Waters 1525 HPLC with a ZORBAX SB-C18 (9.4 × 250 mm) column. Silica gel (100–200 and 200–300 mesh, Qingdao Marine Chemical Co., Ltd., People’s Republic of China), and MCI gel (75–150 μm, Mitsubishi Chemical Corporation, Tokyo, Japan) were used for column chromatography. Fractions were monitored by TLC (GF 254, Qingdao Marine Chemical Co., Ltd.), and spots were visualized by heating silica gel plates immersed in 10% H2SO4 in ethanol. Methanol (HPLC grade) and acetonitrile (HPLC grade) was purchased from CINC High Purity Solvents Co., Ltd (Shanghai, China).
The α-glucosidase and PTB1B inhibitory activity were conducted according to the previous reports with slight modifications. […] While in the PTB1B inhibitory assay, after addition of phosphate-based detection reagent then incubation at 30 °C for 20 min, and absorbance was measured at 620 nm and suramin was used as positive control. The inhibition percentage was calculated as follows: inhibition rate (%) = (E – S)/E × 100% (E is the OD of the control and S is the OD of the sample) and IC50 (50% concentration of inhibition) was calculated by Reed and Muench method.

[2] = molecular target: α-glucosidase (Saccharomyces cerevisiae, UniProt P53341); test: α-glucosidase inhibitory assay (PNPG, absorbance at 405 nm); format: biochemical; settings: at a concentration of 50 μM; means ± SD (n = 3); read-out: α-Glucosidase Inhibition ratio (%)
Chain of α-glucosidase (P53341 whole entry): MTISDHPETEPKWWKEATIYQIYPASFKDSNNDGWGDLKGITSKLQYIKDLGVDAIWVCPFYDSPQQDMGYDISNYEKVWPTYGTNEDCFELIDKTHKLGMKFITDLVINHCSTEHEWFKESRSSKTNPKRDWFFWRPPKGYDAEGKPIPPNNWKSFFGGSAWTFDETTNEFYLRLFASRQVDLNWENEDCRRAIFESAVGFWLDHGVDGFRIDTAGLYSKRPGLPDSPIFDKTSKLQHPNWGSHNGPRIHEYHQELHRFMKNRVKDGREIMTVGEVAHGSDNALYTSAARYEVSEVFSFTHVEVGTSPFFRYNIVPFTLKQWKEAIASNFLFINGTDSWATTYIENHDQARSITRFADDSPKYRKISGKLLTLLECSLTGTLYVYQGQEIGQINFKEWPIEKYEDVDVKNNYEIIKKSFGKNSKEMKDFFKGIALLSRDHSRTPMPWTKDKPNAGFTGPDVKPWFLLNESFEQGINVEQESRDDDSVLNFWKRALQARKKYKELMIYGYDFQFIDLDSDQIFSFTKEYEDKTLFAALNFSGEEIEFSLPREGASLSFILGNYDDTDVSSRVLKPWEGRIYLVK
Procedure: The α-glucosidase and PTB1B inhibitory activity were conducted according to the previous reports with slight modifications [49, 50]. […] The inhibition percentage was calculated as follows: inhibition rate (%) = (E – S)/E × 100% (E is the OD of the control and S is the OD of the sample) and IC50 (50% concentration of inhibition) was calculated by Reed and Muench method.

[3] = test concentration of the compounds not given

Structure (SMILES) | PTP1B inhibition ratio (%) [1, 3] [%] | inhibition at 50 µM [2] [%] | PTP1B inhibition ratio (%) ([1]; at a concentration of 20 μM, positive control)
Oc1ccc2cc1Oc1ccc(cc1)CC=CC=CC(O)C2 (centres unmarked) [Compound 1, Otteacumiene A] | -9.47 ± 2.28 | 38.3 ± 1.79 | 
Oc1ccc2cc1Oc1ccc(cc1)C[C@H](O)/C=C\C=C\C2 [Compound 2, Otteacumiene B] | 11.32 ± 2.03 | 43.98 ± 0.43 | 
COC1c2ccc(O)c(c2)Oc2ccc(cc2)CCC=CCC1O (centres unmarked) [Compound 3, Otteacumiene C] | 19.07 ± 0.85 |  | 
O=C1C/C=C/CCc2ccc(O)c(c2)-c2cc(ccc2O)C1 [Compound 4, Otteacumiene D] | 10.37 ± 2.17 |  | 
Oc1ccc(C/C=C/C=C\CCc2ccc(O)cc2)cc1 [Compound 5, Otteacumiene E] | -0.28 ± 1.89 |  | 
COc1ccc(CC/C=C\C=C\Cc2ccc(O)cc2)cc1 [Compound 6, Otteacumiene F] | -12.94 ± 2.98 |  | 
COc1ccc(/C=C/C/C=C/CCc2ccc(OC)cc2)cc1 [Compound 7, (1E,4E)-1,7-di(4-methoxyphenyl)-1,4-heptadiene] | -26.62 ± 2.28 |  | 
Oc1ccc2cc1Oc1ccc(cc1)CC/C=C\C=C\C2 [Compound 8, tedarenes A] | -3.47 ± 1.21 |  | 
Cc1ccc(C(=O)Nc2ccc(S(=O)(=O)O)c3cc(S(=O)(=O)O)cc(S(=O)(=O)O)c23)cc1NC(=O)c1cccc(NC(=O)Nc2cccc(C(=O)Nc3cc(C(=O)Nc4ccc(S(=O)(=O)O)c5cc(S(=O)(=O)O)cc(S(=O)(=O)O)c45)ccc3C)c2)c1 [Suramin, suramin, reference compound] |  |  | 84.11 ± 0.42^d %
